Source: the kinase profiling compilation of Christmann-Franck et al. (2016)

Tests used:
Assay in all cases: KINOMEscan competition binding
Conditions in all cases: compound 10.0 µM
CDK5 (human) = CDK5 (human) (UniProt Q00535)
CSNK1G2 (human) = CSNK1G2 (human) (UniProt P78368)
MAP2K4 (human) = MAP2K4 (human) (UniProt P45985)
MAP3K9 (human) = MAP3K9 (human) (UniProt P80192)
STK32B (human) = STK32B (human) (UniProt Q9NY57)
PAK2 (human) = PAK2 (human) (UniProt Q13177)
STK10 (human) = STK10 (human) (UniProt O94804)
FGFR2 (human) = FGFR2 (human) (UniProt P21802)
NTRK3 (human) = NTRK3 (human) (UniProt Q16288)
CAMKK2 (human) = CAMKK2 (human) (UniProt Q96RR4)
MYO3B (human) = MYO3B (human) (UniProt Q8WXR4)
Chain of MYO3B (human) (Q8WXR4 whole entry, looked up): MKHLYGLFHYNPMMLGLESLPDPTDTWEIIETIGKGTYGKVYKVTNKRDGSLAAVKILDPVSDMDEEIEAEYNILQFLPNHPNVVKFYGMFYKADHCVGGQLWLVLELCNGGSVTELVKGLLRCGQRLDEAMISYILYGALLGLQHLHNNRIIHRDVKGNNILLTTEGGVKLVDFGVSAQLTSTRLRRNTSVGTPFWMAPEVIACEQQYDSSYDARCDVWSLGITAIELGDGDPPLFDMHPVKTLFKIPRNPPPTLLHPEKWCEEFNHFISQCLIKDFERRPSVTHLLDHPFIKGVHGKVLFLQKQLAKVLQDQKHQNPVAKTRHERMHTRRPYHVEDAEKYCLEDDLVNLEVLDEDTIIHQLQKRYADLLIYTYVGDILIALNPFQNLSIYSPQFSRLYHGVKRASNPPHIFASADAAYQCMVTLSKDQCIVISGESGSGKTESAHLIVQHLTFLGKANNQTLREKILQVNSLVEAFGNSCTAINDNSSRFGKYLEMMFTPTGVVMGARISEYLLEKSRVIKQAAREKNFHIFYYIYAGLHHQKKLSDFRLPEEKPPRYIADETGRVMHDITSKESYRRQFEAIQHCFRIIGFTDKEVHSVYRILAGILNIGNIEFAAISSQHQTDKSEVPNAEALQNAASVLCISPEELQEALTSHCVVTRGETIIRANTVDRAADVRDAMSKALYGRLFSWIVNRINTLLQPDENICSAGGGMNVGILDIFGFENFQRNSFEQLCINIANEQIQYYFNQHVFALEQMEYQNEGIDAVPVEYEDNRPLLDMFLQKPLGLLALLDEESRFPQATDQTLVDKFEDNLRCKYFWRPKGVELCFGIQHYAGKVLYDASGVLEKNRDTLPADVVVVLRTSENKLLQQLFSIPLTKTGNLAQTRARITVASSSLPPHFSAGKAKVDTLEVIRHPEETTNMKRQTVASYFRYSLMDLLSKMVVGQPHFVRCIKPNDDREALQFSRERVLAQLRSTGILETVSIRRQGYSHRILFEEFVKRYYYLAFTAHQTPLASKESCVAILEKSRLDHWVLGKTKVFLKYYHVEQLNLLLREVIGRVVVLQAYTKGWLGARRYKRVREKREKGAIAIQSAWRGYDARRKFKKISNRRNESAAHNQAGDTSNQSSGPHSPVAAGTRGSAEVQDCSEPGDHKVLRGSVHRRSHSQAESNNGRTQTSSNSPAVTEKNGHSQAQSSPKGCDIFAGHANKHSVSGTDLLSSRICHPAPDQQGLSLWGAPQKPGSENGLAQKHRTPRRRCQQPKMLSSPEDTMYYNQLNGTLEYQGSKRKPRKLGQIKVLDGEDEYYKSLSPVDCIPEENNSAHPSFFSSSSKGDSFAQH

PRKCQ (human) = PRKCQ (human) (UniProt Q04759)
Chain of PRKCQ (human) (Q04759 whole entry, looked up): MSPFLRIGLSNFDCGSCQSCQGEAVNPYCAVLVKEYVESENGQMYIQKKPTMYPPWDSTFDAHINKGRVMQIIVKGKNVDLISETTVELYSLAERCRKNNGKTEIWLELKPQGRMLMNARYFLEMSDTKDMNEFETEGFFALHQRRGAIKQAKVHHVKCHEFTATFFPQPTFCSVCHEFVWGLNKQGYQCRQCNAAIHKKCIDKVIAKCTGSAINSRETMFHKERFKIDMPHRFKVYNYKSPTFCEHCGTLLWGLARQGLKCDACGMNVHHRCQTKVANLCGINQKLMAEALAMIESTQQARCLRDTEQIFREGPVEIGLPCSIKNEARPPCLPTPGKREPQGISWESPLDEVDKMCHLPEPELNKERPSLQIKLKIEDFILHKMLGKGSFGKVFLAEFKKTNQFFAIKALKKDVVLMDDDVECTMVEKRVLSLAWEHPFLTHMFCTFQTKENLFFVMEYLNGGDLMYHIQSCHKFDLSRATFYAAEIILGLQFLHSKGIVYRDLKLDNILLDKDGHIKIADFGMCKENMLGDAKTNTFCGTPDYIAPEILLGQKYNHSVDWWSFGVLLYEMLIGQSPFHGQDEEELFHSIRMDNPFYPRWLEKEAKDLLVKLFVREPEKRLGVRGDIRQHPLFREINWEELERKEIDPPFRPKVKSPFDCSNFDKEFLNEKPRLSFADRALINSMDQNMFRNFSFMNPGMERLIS

RPS6KA4 KD2 (human) = RPS6KA4 KD2 (human) (UniProt O75676)
PIP5K1A (human) = PIP5K1A (human) (UniProt Q99755)
RPS6KA5 KD2 (human) = RPS6KA5 KD2 (human) (UniProt O75582)
CDKL2 (human) = CDKL2 (human) (UniProt Q92772)
KDR (human) = KDR (human) (UniProt P35968)
CSK (human) = CSK (human) (UniProt P41240)
Chain of CSK (human) (P41240 whole entry, looked up): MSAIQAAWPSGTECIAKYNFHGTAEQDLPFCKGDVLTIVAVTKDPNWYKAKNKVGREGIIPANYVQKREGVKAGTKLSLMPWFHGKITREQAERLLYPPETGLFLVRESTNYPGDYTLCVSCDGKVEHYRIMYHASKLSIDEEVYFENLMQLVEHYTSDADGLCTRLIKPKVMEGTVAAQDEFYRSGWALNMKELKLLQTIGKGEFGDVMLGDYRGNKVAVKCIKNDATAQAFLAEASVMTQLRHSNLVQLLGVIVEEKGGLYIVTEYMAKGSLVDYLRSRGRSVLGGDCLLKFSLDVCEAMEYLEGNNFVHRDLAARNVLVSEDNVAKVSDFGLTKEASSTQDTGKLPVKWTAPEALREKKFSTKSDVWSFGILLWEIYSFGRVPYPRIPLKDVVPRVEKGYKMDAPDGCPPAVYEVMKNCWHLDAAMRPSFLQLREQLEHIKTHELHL

FGFR4 (human) = FGFR4 (human) (UniProt P22455)
RPS6KA2 KD2 (human) = RPS6KA2 KD2 (human) (UniProt Q15349)
MYLK4 (human) = MYLK4 (human) (UniProt Q86YV6)
Chain of MYLK4 (human) (Q86YV6 whole entry, looked up): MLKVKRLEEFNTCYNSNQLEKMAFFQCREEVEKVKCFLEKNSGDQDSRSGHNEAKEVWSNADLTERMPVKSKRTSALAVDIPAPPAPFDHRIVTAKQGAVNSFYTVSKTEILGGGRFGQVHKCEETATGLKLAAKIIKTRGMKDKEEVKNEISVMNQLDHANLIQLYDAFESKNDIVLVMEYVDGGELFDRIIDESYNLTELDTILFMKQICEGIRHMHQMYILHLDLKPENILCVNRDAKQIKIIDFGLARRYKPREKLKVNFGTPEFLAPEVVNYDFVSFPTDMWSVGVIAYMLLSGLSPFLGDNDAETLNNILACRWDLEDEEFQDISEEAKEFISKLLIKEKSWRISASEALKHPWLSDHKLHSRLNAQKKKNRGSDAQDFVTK

RIPK4 (human) = RIPK4 (human) (UniProt P57078)
PAK1 (human) = PAK1 (human) (UniProt Q13153)
MAP4K4 (human) = MAP4K4 (human) (UniProt O95819)
CLK4 (human) = CLK4 (human) (UniProt Q9HAZ1)
AURKA (human) = AURKA (human) (UniProt O14965)
Chain of AURKA (human) (O14965 whole entry, looked up): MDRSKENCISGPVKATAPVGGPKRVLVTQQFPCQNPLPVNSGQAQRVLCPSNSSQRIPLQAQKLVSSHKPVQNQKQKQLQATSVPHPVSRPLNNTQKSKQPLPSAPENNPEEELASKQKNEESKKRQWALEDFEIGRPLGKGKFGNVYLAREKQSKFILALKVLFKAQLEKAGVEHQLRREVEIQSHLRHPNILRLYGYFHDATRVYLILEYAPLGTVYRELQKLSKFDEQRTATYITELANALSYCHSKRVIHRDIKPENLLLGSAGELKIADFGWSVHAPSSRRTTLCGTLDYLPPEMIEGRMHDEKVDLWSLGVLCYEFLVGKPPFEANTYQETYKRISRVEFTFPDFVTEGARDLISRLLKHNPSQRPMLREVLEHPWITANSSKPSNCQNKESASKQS

MAPK6 (human) = MAPK6 (human) (UniProt Q16659)
[1] = test system: KIT (human), P10721 [V559D]
MAP3K12 (human) = MAP3K12 (human) (UniProt Q12852)
INSR (human) = INSR (human) (UniProt P06213)
CHEK2 (human) = CHEK2 (human) (UniProt O96017)
IRAK3 (human) = IRAK3 (human) (UniProt Q9Y616)
ROCK2 (human) = ROCK2 (human) (UniProt O75116)
Chain of ROCK2 (human) (O75116 whole entry, looked up): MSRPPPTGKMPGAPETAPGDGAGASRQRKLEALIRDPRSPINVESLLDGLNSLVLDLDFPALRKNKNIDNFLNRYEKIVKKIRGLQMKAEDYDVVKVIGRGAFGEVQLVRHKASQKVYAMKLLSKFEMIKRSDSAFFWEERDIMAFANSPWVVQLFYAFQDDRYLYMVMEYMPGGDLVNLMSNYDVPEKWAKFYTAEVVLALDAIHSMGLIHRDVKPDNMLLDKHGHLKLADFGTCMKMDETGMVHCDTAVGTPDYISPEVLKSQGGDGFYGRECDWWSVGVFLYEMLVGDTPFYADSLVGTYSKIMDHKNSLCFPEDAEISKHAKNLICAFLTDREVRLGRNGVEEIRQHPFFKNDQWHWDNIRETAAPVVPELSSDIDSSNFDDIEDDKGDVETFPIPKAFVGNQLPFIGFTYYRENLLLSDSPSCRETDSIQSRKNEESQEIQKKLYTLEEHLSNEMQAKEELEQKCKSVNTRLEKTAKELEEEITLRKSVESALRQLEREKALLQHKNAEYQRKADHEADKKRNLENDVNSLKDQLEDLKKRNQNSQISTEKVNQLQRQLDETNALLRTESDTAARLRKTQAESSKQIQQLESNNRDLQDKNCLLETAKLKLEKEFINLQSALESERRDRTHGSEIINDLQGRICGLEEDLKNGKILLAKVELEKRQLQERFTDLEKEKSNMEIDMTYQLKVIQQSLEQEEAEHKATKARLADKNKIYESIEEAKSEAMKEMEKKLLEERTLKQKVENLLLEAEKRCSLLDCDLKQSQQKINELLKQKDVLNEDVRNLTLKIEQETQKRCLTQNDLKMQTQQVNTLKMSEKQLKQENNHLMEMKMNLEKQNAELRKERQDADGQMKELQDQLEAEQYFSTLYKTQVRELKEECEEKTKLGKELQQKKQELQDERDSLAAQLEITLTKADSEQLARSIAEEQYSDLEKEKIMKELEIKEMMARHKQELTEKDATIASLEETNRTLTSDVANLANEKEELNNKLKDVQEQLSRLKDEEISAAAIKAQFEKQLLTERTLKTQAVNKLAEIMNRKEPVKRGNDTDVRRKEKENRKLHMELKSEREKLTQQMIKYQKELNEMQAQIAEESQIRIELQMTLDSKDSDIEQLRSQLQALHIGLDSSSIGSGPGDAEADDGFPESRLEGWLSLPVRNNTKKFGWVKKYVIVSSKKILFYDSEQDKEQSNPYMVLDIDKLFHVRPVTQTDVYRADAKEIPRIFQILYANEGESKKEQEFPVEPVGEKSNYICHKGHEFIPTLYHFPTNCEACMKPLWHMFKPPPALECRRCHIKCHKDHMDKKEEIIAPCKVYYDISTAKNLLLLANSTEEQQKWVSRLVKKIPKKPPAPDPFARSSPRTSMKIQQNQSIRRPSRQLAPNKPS

MAP4K3 (human) = MAP4K3 (human) (UniProt Q8IVH8)
RPS6KA3 KD1 (human) = RPS6KA3 KD1 (human) (UniProt P51812)
EPHB3 (human) = EPHB3 (human) (UniProt P54753)
[2] = biological target: TYK2 JH2 pseudokinase (human) (UniProt P29597)
BMPR1A (human) = BMPR1A (human) (UniProt P36894)
PDGFRA (human) = PDGFRA (human) (UniProt P16234)
TESK1 (human) = TESK1 (human) (UniProt Q15569)

Chain of MAP2K4 (human) (P45985 whole entry, looked up): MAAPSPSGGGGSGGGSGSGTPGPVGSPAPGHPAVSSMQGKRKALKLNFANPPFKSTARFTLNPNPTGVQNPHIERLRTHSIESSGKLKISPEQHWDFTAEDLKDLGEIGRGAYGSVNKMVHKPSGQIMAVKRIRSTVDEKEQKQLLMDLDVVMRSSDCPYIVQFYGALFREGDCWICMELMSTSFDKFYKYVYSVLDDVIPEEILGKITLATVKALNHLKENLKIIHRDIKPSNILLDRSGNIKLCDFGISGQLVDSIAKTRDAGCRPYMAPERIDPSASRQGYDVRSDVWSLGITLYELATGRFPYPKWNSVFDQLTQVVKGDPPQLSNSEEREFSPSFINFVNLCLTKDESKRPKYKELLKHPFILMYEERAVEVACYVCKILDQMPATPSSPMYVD

Cc1ccc(NC(=O)c2cccc(C(C)(C)C#N)c2)cc1Nc1ccc2ncn(C)c(=O)c2c1
kinase still bound, per cent of control (CDK5 (human)): 100%
kinase still bound, per cent of control (CSNK1G2 (human)): 100%
kinase still bound, per cent of control (MAP2K4 (human)): 100%
kinase still bound, per cent of control (MAP3K9 (human)): 94%
kinase still bound, per cent of control (STK32B (human)): 100%
kinase still bound, per cent of control (PAK2 (human)): 100%
kinase still bound, per cent of control (STK10 (human)): 0.1%
kinase still bound, per cent of control (FGFR2 (human)): 55%
kinase still bound, per cent of control (NTRK3 (human)): 38%
kinase still bound, per cent of control (CAMKK2 (human)): 28%
kinase still bound, per cent of control (MYO3B (human)): 100%
kinase still bound, per cent of control (PRKCQ (human)): 98%
kinase still bound, per cent of control (RPS6KA4 KD2 (human)): 94%
kinase still bound, per cent of control (PIP5K1A (human)): 100%
kinase still bound, per cent of control (RPS6KA5 KD2 (human)): 100%
kinase still bound, per cent of control (CDKL2 (human)): 85%
kinase still bound, per cent of control (KDR (human)): 2.3%
kinase still bound, per cent of control (CSK (human)): 1.2%
kinase still bound, per cent of control (FGFR4 (human)): 100%
kinase still bound, per cent of control (RPS6KA2 KD2 (human)): 84%
kinase still bound, per cent of control (MYLK4 (human)): 100%
kinase still bound, per cent of control (RIPK4 (human)): 98%
kinase still bound, per cent of control (PAK1 (human)): 100%
kinase still bound, per cent of control (MAP4K4 (human)): 10%
kinase still bound, per cent of control (CLK4 (human)): 100%
kinase still bound, per cent of control (AURKA (human)): 100%
kinase still bound, per cent of control (MAPK6 (human)): 100%
kinase still bound, per cent of control [1]: 0.05%
kinase still bound, per cent of control (MAP3K12 (human)): 74%
kinase still bound, per cent of control (INSR (human)): 100%
kinase still bound, per cent of control (CHEK2 (human)): 92%
kinase still bound, per cent of control (IRAK3 (human)): 95%
kinase still bound, per cent of control (ROCK2 (human)): 80%
kinase still bound, per cent of control (MAP4K3 (human)): 94%
kinase still bound, per cent of control (RPS6KA3 KD1 (human)): 90%
kinase still bound, per cent of control (EPHB3 (human)): 0%
kinase still bound, per cent of control [2]: 100%
kinase still bound, per cent of control (BMPR1A (human)): 100%
kinase still bound, per cent of control (PDGFRA (human)): 0.1%
kinase still bound, per cent of control (TESK1 (human)): 100%

COc1cc(C(=O)NC2CCN(C)CC2)ccc1Nc1ncc2c(n1)N(C1CCCC1)CCC(=O)N2C(C)C
kinase still bound, per cent of control (CDK5 (human)): 100%
kinase still bound, per cent of control (CSNK1G2 (human)): 100%
kinase still bound, per cent of control (MAP2K4 (human)): 100%
kinase still bound, per cent of control (MAP3K9 (human)): 100%
kinase still bound, per cent of control (STK32B (human)): 100%
kinase still bound, per cent of control (PAK2 (human)): 100%
kinase still bound, per cent of control (STK10 (human)): 100%
kinase still bound, per cent of control (FGFR2 (human)): 100%
kinase still bound, per cent of control (NTRK3 (human)): 100%
kinase still bound, per cent of control (CAMKK2 (human)): 100%
kinase still bound, per cent of control (MYO3B (human)): 100%
kinase still bound, per cent of control (PRKCQ (human)): 100%
kinase still bound, per cent of control (RPS6KA4 KD2 (human)): 100%
kinase still bound, per cent of control (PIP5K1A (human)): 6.4%
kinase still bound, per cent of control (RPS6KA5 KD2 (human)): 100%
kinase still bound, per cent of control (CDKL2 (human)): 100%
kinase still bound, per cent of control (KDR (human)): 100%
kinase still bound, per cent of control (CSK (human)): 100%
kinase still bound, per cent of control (FGFR4 (human)): 100%
kinase still bound, per cent of control (RPS6KA2 KD2 (human)): 100%
kinase still bound, per cent of control (MYLK4 (human)): 100%
kinase still bound, per cent of control (RIPK4 (human)): 100%
kinase still bound, per cent of control (PAK1 (human)): 100%
kinase still bound, per cent of control (MAP4K4 (human)): 100%
kinase still bound, per cent of control (CLK4 (human)): 100%
kinase still bound, per cent of control (AURKA (human)): 100%
kinase still bound, per cent of control (MAPK6 (human)): 100%
kinase still bound, per cent of control [1]: 100%
kinase still bound, per cent of control (MAP3K12 (human)): 100%
kinase still bound, per cent of control (INSR (human)): 100%
kinase still bound, per cent of control (CHEK2 (human)): 100%
kinase still bound, per cent of control (IRAK3 (human)): 100%
kinase still bound, per cent of control (ROCK2 (human)): 100%
kinase still bound, per cent of control (MAP4K3 (human)): 100%
kinase still bound, per cent of control (RPS6KA3 KD1 (human)): 100%
kinase still bound, per cent of control (EPHB3 (human)): 100%
kinase still bound, per cent of control [2]: 100%
kinase still bound, per cent of control (BMPR1A (human)): 100%
kinase still bound, per cent of control (PDGFRA (human)): 100%
kinase still bound, per cent of control (TESK1 (human)): 100%
